The results in this text go back to US12433925B2, “Composition for photodynamic reaction containing extract of Ligularia fischeri as an effective ingredient, antimicrobial, antifungal and sterilization composition including the same, and sterilization method using the composition for photodynamic reaction” (KOREA INSTITUTE OF SCIENCE AND TECHNOLOGY, priority 2020, dated 2025).

Experiment [1] concerns Staphylococcus aureus KCTC 3881. Nature of the experiment: Mouse splinted excisional wound model, wound size by caliper. The class given is in vivo, BALB/c mouse. To be noted: no red light. As to the method:
(§1) A 7-week-old male BALB/c mouse (BALB-cAnNCr1jOri, Orientbio, Seongnam, South Korea) was housed for a week in a sterile animal room (SPF, Specific pathogen free) with a controlled air temperature of 22±2° C., a humidity of 50±10%, and the cycle of 12 hours of light and 12 hours of dark. The mice were anesthetized through an avertin intraperitoneal injection, a 5 mm wound was made therein using a biopsy patch, and a central portion of silicone drilled to an outside diameter of 15 mm and an inside diameter of 5 mm was stuck to fit the wound. Then, in the case of the experimental group, 10 μL of a physiological buffer solution (PBS) containing 10^9 CFU/mL of Staphylococcus aureus KCTC 3881 (S.A. bacterium) was inoculated into the wound site, which was then clogged with Tegaderm, and the back of the mice was wrapped with a compression bandage so that the wound site was not in contact with the outside.
Two days after the infection with Staphylococcus aureus, in the case of the group treated with Ligularia fischeri ethanol according to Preparation Example 1(1), the wound was treated with 10 μL of a Ligularia fischeri ethanol extract (20 μg/mL), and in the case of the red light treated group, the wound was treated with red light LED (wavelength: 660 nm, 120 W/m^2) for 15 minutes. In addition, in the case of the Ligularia fischeri ethanol extract according to Preparation Example 1(1) and the red light-treated group, 10 μL of the Ligularia fischeri ethanol extract (20 μg/mL) was treated on the wound for 30 minutes and then red light (120 W/m^2) was treated for 15 minutes. […]
The wound was treated in the same manner as above, even 4, 6, and 8 days after infection with Staphylococcus aureus, and the image of the wound site was obtained on Day 2, 4, 6, and 8 after infection with Staphylococcus aureus. The width and height of the wound site were measured using a caliper and the product obtained by multiplying the width with the height was used to calculate the wound size in mm^2. […]

Experiment [2] shares this test system. Description: Mouse splinted excisional wound model, wound closure by H&E histology (distance between epidermis tips). The class given is in vivo, BALB/c mouse. To be noted: no red light. As to the method: as §1
Two days after the infection with Staphylococcus aureus, in the case of the group treated with Ligularia fischeri ethanol according to Preparation Example 1(1), the wound was treated with 10 μL of a Ligularia fischeri ethanol extract (20 μg/mL), and in the case of the red light treated group, the wound was treated with red light LED (wavelength: 660 nm, 120 W/m^2) for 15 minutes. […]
A wound size measurement is a measurement of apparently appearing wound scab and requires the task of histologically confirming whether the wound has been closed by an epidermis actually newly created inside the scab. To this end, the distance between the wound epidermis was measured. […]
Example 1(1)+red light), and the ampicillin-treated group (S.A.bacteria+Ampicillin) on Day 8 after the wound is infected with Staphylococcus aureus (S.A.bacteria). […] At this time, statistical significance between Control (PBS) and S. A. bacteria-treated group was expressed as ^##p<0.001. Statistical significance with S. A. bacteria-treated group-treated group was expressed as *p<0.05 or […]. […]

Regarding `CC1(C)S[C@@H]2[C@H](NC(=O)[C@H](N)c3ccccc3)C(=O)N2[C@H]1C(=O)O` [ampicillin, Ampicillin], the “wound size compared to the group treated with S.A. bacteria” value in experiment [1] (Day 8, infected wound) is recorded as “no significant difference in wound size”. The “wound size, % of the initial wound size” value in experiment [1] (Day 8, wound infected with S.A. bacteria, topical 10 μL) stood at 53.7%. The “change in wound size, uninfected (PBS) wound” value in experiment [1] (PBS (no S.A. infection)) is reported as “the change in wound size did not occur over time”. In experiment [2] (Day 8, PBS (uninfected) wound), the “wound closure (epidermis formation, H&E)” value is “completely closed”. In addition, in experiment [2] (Day 8, infected wound), the “distance between epithelial tips (wound maintained)” value turned out to be 16.6% and the “histological wound size compared to the S.A. bacteria-treated group” value is “reduced”.
